Counter-ions that a name gives are not always drawn.
Key:
Assay type in all cases: in vivo, BALB/c nude mice
[1] = system: 4T1 cells, breast cancer cells; test: Tumor volume in 4T1 tumor-bearing mice; conditions: day 18 of administration; intraperitoneal; MET 250, 2DG 500, IP6 500, Ins 500 mg/kg (four-combination: IP6 250 + Ins 250 mg/kg); control 1486.8±67.0; mean±SD
Procedure: (§1) Five-week-old, female specific pathogen free BALB/c nude mice were purchased and used from Orient Bio Co., Ltd. After quarantine and adaptation for one week, healthy animals without weight loss were selected and used in the test. The test animals were raised in a breeding environment set at a temperature of 23±3° C., a relative humidity of 50±10%, the ventilation number of 10 to 15 times/hour, lighting time of 12 hours (08:00 to 20:00), and illuminance of 150 to 300 Lux. During a pre-test period, the test animals were allowed to freely consume solid feed for the test animals (Cargill Agripurina Co., Ltd.) and drinking water.
(§2) After an adaptation period for one week, in BALB/c nude mice, 4T1 cells (1×10 ^5 cells/mouse), breast cancer cells, were injected to the left breast adipose tissues of the test animals, and then the tumor tissues were visually observed. When the tumor tissue size of the test animals was about 100 mm ^3, the test animals were divided into 9 test groups based on a randomized block design. That is, the 9 test groups were classified into a control group, a MET group (MET 250 mg/kg), a 2DG group (2DG 500 mg/kg), an Ins group (Ins 500 mg/kg), a IP6 group (IP6 500 mg/kg), a MET+2DG group (MET 250 mg/kg+2DG 500 mg/kg), a MET+2DG+Ins group (MET 250 mg/kg+2DG 500 mg/kg+Ins 500 mg/kg), a MET+2DG+IP6 group (MET 250 mg/kg+2DG 500 mg/kg+IP6 500 mg/kg), a MET+2DG+IP6+Ins group (MET 250 mg/kg+2DG 500 mg/kg+IP6 250 mg/kg+Ins 250 mg/kg), and each test group used 10 test animals. The test substance was dissolved in distilled water and intraperitoneally administered at fixed time for 18 days.
The body weight of the test animal during the test period was measured at a fixed time once a week from the test substance administration date. A tumor volume was measured by using a digital caliper every three days, the length and width of the tumor were measured, and the tumor volume was calculated by substituting the following Equation. Tumor volume (mm^3)=(width^2×length)/2

[2] = system: 4T1 cells, breast cancer cells; test: Tumor weight in 4T1 tumor-bearing mice; conditions: day 19 of administration; intraperitoneal; MET 250, 2DG 500, IP6 500, Ins 500 mg/kg (four-combination: IP6 250 + Ins 250 mg/kg); control 1.244±0.22; mean±SD
Procedure: as §1, §2
[…] The blood was placed in a serum separate tube (Becton Dickinson) and left at room temperature for 30 minutes and centrifuged at 3,000 rpm for 20 minutes to isolate serum and the isolated serum was stored at −70° C. until analysis. […] Tumors were weighed and some were fixed in 10% neutral buffered formalin (NBF, Sigma-Aldrich Co.) and embedded in paraffin to perform tissue immunostaining. The lung was fixed with a Bouin's solution (Sigma-Aldrich Co.), and the tumor nodule metastasized to the lung was observed and a lung metastasis rate was examined.

[3] = system: 4T1 cells, breast cancer cells; test: Incidence of lung metastasis in 4T1 tumor animal model; conditions: 10 animals per group; intraperitoneal; control 100%
Procedure: as §1, §2
After 14 days of administration of the test substance, the test animals were anesthetized using an anesthetic made by diluting tribromoethanol with tert-amyl alcohol and the blood was collected from the orbit. The blood was placed in a serum separate tube (Becton Dickinson) and left at room temperature for 30 minutes and centrifuged at 3,000 rpm for 20 minutes to isolate serum and the isolated serum was stored at −70° C. until analysis. After taking the blood from the test animals, the tumor was extracted and weighed. Tumors were weighed and some were fixed in 10% neutral buffered formalin (NBF, Sigma-Aldrich Co.) and embedded in paraffin to perform tissue immunostaining. The lung was fixed with a Bouin's solution (Sigma-Aldrich Co.), and the tumor nodule metastasized to the lung was observed and a lung metastasis rate was examined.

SMILES | tumor volume [1] [mm^3] | tumor weight [2] [g] | incidence of lung metastasis [3] [%]
OCC1O[C@H](O)C[C@@H](O)[C@@H]1O (mixture of isomers) [2DG, 2-deoxy-D-glucose] | 1350.3±55.2 | 1.092 ± 0.18 | 100
O=P(O)(O)O[C@H]1[C@H](OP(=O)(O)O)[C@@H](OP(=O)(O)O)[C@H](OP(=O)(O)O)[C@@H](OP(=O)(O)O)[C@H]1OP(=O)(O)O [IP6, inositol hexaphosphate] | 1108.5±66.3 | 0.874 ± 0.18 | 90
O[C@H]1[C@H](O)[C@@H](O)[C@H](O)[C@@H](O)[C@H]1O [Ins, myo-inositol] | 1190.1±67.3 | 0.904 ± 0.20 | 90
CN(C)C(=N)NC(=N)N [MET, Metformin HCl] | 1400.5±58.6 | 1.134 ± 0.15 | 100

— patent US12370155B2, “Anticancer composition” (NOAHM INC., priority 2018, dated 2025)
